Consider five compounds from patent US7528148B2, “Pyrazolo[3,4-B]pyridine compounds, and their use as phosphodiesterase inhibitors” (Glaxo Group Limited, priority 2002, dated 2009).

In this test the target is T1, PDE4B (human recombinant) (Homo sapiens, UniProt Q07343).
T1 construct: made in house; host or cells: Saccharomyces cerevisiae strain GL62 (PDE-deficient)
T1 sequence (Q07343 1-564 isoform Q07343-2): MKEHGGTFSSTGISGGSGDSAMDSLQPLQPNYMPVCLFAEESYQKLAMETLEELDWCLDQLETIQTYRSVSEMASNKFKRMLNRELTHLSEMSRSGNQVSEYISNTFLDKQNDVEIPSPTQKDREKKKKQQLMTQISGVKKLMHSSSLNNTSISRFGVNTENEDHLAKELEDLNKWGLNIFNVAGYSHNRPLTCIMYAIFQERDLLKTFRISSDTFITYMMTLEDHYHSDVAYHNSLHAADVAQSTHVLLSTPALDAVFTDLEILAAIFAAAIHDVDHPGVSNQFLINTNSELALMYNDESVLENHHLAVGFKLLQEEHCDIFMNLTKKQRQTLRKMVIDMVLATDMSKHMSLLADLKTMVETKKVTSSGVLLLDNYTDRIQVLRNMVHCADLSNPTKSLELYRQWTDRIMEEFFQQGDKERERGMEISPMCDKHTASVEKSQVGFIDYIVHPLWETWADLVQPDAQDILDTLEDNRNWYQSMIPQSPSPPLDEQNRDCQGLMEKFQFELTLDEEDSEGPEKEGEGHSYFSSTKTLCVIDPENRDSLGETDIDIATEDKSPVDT
In words: PDE4B inhibition, radioactive SPA or IMAP fluorescence polarisation (FP) assay. The test is classed as biochemical. The settings on record: one reading or average of ca. 2-6 readings, accurate only to about ±0.5 log unit, read-out: PDE4B pIC50 (±about 0.5) (converted). An excerpt:
Human recombinant PDE4B, in particular the 2B splice variant thereof (HSPDE4B2B), is disclosed in WO 94/20079 and also M. M. McLaughlin et al., “A low Km, rolipram-sensitive, cAMP-specific phosphodiesterase from human brain: cloning and expression of cDNA, biochemical characterisation of recombinant protein, and tissue distribution of mRNA”, J. Biol. Chem., 1993, 268, 6470-6476. Human recombinant PDE4B was expressed in the PDE-deficient yeast Saccharomyces cerevisiae strain GL62. 100,000×g supernatant fractions of yeast cell lysates were used for PDE4B assays and inhibitor studies.
The ability of compounds to inhibit catalytic activity at PDE4B or 4D (human recombinant), PDE3 (from bovine aorta) or PDE5 (human recombinant) or PDE6 (from bovine retina) was determined by Scintillation Proximity Assay (SPA) in 96-well format. Test compounds (preferably as a solution in DMSO, e.g. about 2 microlitre (ul) volume of DMSO solution) were preincubated at ambient temperature (room temperature, e.g. 19-23° C.) in Wallac Isoplates (code 1450-514) with PDE enzyme in 50 mM Tris-HCl buffer pH 7.5, 8.3 mM MgCl2, 1.7 mM EGTA, 0.05% (w/v) bovine serum albumin for 10-30 minutes (usually 30 minutes). The enzyme concentration was adjusted so that no more than 20% hydrolysis of the substrate defined below occurred in control wells without compound, during the incubation. For PDE3, PDE4B and PDE4D assays, [5′,8-^3H]Adenosine 3′,5′-cyclic phosphate (Amersham Pharmacia Biotech, code TRK.559; or Amersham Biosciences UK Ltd, Pollards Wood, Chalfont St Giles, Buckinghamshire HP8 4SP, UK) was added to give 0.05 uCi per well and ˜10 nM final concentration. For the PDE5 and PDE6 assay [8-^3H]Guanosine 3′,5′-cyclic phosphate (Amersham Pharmacia Biotech, code TRK.392) was added to give 0.05 uCi per well and ˜36 nM final concentration. Plates, preferably containing approx. 100 ul volume of assay mixture, were mixed on an orbital shaker for 5 minutes and incubated at ambient temperature for 1 hour. Phosphodiesterase SPA beads (Amersham Pharmacia Biotech, code RPNQ 0150) were added (˜1 mg per well) to terminate the assay. Plates were sealed and shaken and allowed to stand at ambient temperature for 35 minutes to 1 hour (preferably 35 minutes) to allow the beads to settle. Bound radioactive product was measured using a WALLAC TRILUX 1450 Microbeta scintillation counter. For inhibition curves, 10 concentrations ([…]) of each compound were assayed. Curves were analysed using ActivityBase and XLfit (ID Businesss Solutions Limited, 2 Ocean Court, Surrey Research Park, Guildford, Surrey GU2 7QB, United Kindgom) Results were expressed as pIC50 values.
The ability of compounds to inhibit catalytic activity at PDE4B (human recombinant) or PDE4D (human recombinant) was determined by IMAP Fluorescence Polarisation (FP) assay (IAP Explorer kit, available from Molecular Devices Corporation, Sunnydale, Calif., USA; Molecular Devices code: R8062) in 384-well format. The IMAP FP assay is able to measure PDE activity in an homogenous, non-radioactive assay format. The FP assay uses the ability of immobilised trivalent metal cations, coated onto nanoparticles (tiny beads), to bind the phosphate group of Fl-AMP that is produced on the hydrolysis of fluorescein-labelled (Fl) cyclic adenosine mono-phosphate (Fl-cAMP) to the non-cyclic Fl-AMP form. […] Binding of Fl-AMP product to the beads (coated with the immobilised trivalent cations) slows the rotation of the bound Fl-AMP and leads to an increase in the fluorescence polarisation ratio of parallel to perpendicular light. Inhibition of the PDE reduces/inhibits this signal increase. […]
Background: In fluorescence polarisation assays a small probe gives low polarisation when free and higher when bound to something large.
`CCn1ncc2c(NC3CCOCC3)c(-c3nnc(C)o3)cnc21` [Example 14, 1-Ethyl-5-(5-methyl-1,3,4-oxadiazol-2-yl)-N-(tetrahydro-2H-pyran-4-yl)-1H-pyrazolo[3,4-b]pyridin-4-amine]: the IC50 was 25.1 nM.
With `CCn1ncc2c(NC3CCOCC3)c(-c3nnc(C(C)(C)C)o3)cnc21` [Example 17, 5-(S-Tert-butyl-1,3,4-oxadiazol-2-yl)-1-ethyl-N-(tetrahydro-2H-pyran-4-yl)-1H-pyrazolo[3,4-b]pyridin-4-amine], the IC50 is 0.794 to 31.6 nM.
On to `CCn1ncc2c(NC3CCOCC3)c(-c3nnc(CS(C)(=O)=O)o3)cnc21` [Example 23, 1-Ethyl-5-{5-[(methylsulfonyl)methyl]-1,3,4-oxadiazol-2-yl}-N-(tetrahydro-2H-pyran-4-yl)-1H-pyrazolo[3,4-b]pyridin-4-amine], for which the IC50 was 7.94 nM.
To `CCn1ncc2c(NC3CCOCC3)c(-c3nnc(CN4CCN(C)CC4)o3)cnc21` [Example 35, 1-Ethyl-5-{5-[(4-methylpiperazin-1-yl)methyl]-1,3,4-oxadiazol-2-yl}-N-(tetrahydro-2H-pyran-4-yl)-1H-pyrazolo[3,4-b]pyridin-4-amine] belongs 31.6 nM.
As to `CCn1ncc2c(NC3CCOCC3)c(-c3nnc(C4CCOCC4)o3)cnc21` [Example 38, 1-Ethyl-N-(tetrahydro-2H-pyran-4-yl)-5-[5-(tetrahydro-2H-pyran-4-yl)-1,3,4-oxadiazol-2-yl]-1H-pyrazolo[3,4-b]pyridin-4-amine], the IC50 was 0.794 to 31.6 nM.
